Assays:
Assay type in all cases: cell-based
[1] = system: Candida albicans; assay: disk diffusion assay on malt agar plates; conditions: 10 µg in 30 µL 50% MeOH per disk
[2] = system: Aspergillus fumigatus; assay: disk diffusion assay on malt agar plates; conditions: 10 µg in 30 µL 50% MeOH per disk
[3] = system: Ustilago maydis; assay: disk diffusion assay on malt agar plates; conditions: 10 µg in 30 µL 50% MeOH per disk
[4] = system: Aspergillus niger; assay: disk diffusion assay on malt agar plates; conditions: 10 µg in 30 µL 50% MeOH per disk
[5] = system: Candida glabrata; assay: disk diffusion assay on malt agar plates; conditions: 10 µg in 30 µL 50% MeOH per disk
[6] = system: Candida albicans; assay: serial dilution test, minimum inhibitory concentration (MIC); conditions: RPMI-1640 medium, 35 °C, 24 h
Method: (§1) The antifungal activity of the compounds according to the present invention, in particular hassallidin A and hassallidin B, was verified for Aspergillus fumigatus and Candida albicans by minimum inhibitory concentration (MIC) data in a serial dilution test. For each fungus six testing wells of a microtiter plate were prepared with 240 µL medium (Sigma RPMI-1640), 10 µL inoculum suspension and 50 µL fungicide solution (50% MeOH) of different concentrations. Inoculum preparation was carried out by guideline of NCCLS.^25 The fungicide solution preparation took place in a series of twofold dilutions from a stock solution of 92 µg/mL starting with 4.6 µg/50 µL down to 0.14 µg/50 µL. One well was prepared without antifungal agent for unhindered growth as control. The microtiter plates were incubated for Candida albicans and Aspergillus fumigatus at 35 °C for 24 h and 48 h, respectively. Tests were run in triplicates. Inhibition of growth was assessed by comparing the fungal growth of the test samples with the control well by determination of optical density at 595 nm in a microplate reader. The concentration of the well at highest dilution that was still free from growth was assigned the minimum inhibitory concentration (MIC in µg/mL). […] No activities were observed by using Bacillus subtilis, Streptomyces versicolor or Escherchia coli in disk diffusion assays on LB-agar plates with 10 µg hassallidin A in 30 µL 50% MeOH per disk.

[7] = system: Aspergillus fumigatus; assay: as above; conditions: RPMI-1640 medium, 35 °C, 48 h
Method: as §1

[8] = system: L 929 (murine aneuploid fibrosarcoma) cells; assay: cytotoxicity assay, IC-Tox50 Kit, resazurin (2nd test); conditions: down to a concentration of 1.0 µg/mL; decrease of resazurin at 595 nm, 24 h
Method: 2nd test Cytotoxicity assays were further performed using the IC-Tox50 Kit from CCS (Cell Culture Service, Hamburg) according to the manufacturers recommendations in 96-well microtitre plates. L 929 (murine aneuploid fibrosarcoma) cells were used and the activity was followed by recording the decrease of the blue pigment resazurin at 595 nm. Down to a concentration of 1.0 µg/mL a hundred percent inhibition of cell activity was determined for hassallidin A and hassallidin B. The cytotoxity assays using deposited L 929 cells were prepared as follows: • Each well contained 140 µl RPMI-1640 medium, 100 µl resazurin solution and 10 µl test solution of hassallidin A or hassallidin B at different concentrations. To obtain 10 µl test solution, 1 µl / 2 µl / 3 µl or 4µl of a 50% methanolic stock solution (25 µg/ 100 µl) were mixed with 9 µl / 8 µl / 7 µl or 6 µl 50% MeOH. For unhindered cell activity, 10 µl 50% MeOH solution was used as test solution. Solutions of 1µg Na2SeO3 / 10 µl (50% MeOH) and 2 µg Na2SeO3 /10 µl (50% MeOH) were used as positive control. • The absorption difference (t0h-t24h) of resazurin metabolised by L 929 cells is graphically represented in figure 6.

[9] = system: Penicillium sp.; assay: disk diffusion assay on malt agar plates; conditions: 10 µg in 30 µL 50% MeOH per disk

Substance	antifungal activity in disk diffusion assay [1]	antifungal activity in disk diffusion assay [2]	antifungal activity in disk diffusion assay [3]	antifungal activity in disk diffusion assay [4]	antifungal activity in disk diffusion assay [5]	MIC [6]	MIC [7]	inhibition of cell activity [8]	antifungal activity in disk diffusion assay [9]
hassallidin A	precise antifungal activity	precise antifungal activity	precise antifungal activity	precise antifungal activity	precise antifungal activity	4.8 µg/mL	4.8 µg/mL	a hundred	precise antifungal activity
hassallidin B	precise antifungal activity	precise antifungal activity	precise antifungal activity	precise antifungal activity	precise antifungal activity	4.8 µg/mL	4.8 µg/mL	a hundred	precise antifungal activity
